Laboratory results reported in US7837670B2, “Methods and devices for delivering therapeutic agents into the prostate gland” (Boston Scientific Scimed, Inc., priority 2005, dated 2010).

Assays:
[1] = Autoradiography of the prostate after transurethral catheter injection of tritium labeled agent
[2] = Parallel autoradiography of liver and urogenital organs to test for regurgitation or escape into the blood stream
[3] = test system: BPH; conditions: only after 6 months of oral treatment; cited from earlier work
[4] = 6 hours after transurethral injection of 150 uCi 3H-flutamide
[5] = 24 hours after transurethral injection of 150 uCi 3H-flutamide
[6] = 48 hours after transurethral injection of 150 uCi 3H-flutamide

| Molecule | diffuse (non-nuclear, including stroma) activity in prostate ([1]; 1 hour after transurethral injection of 150 uCi 3H-flutamide) | free (extra-nuclear) activity in prostate [1, 4] | glandular nuclear activity in prostate [1, 4] | glandular nuclear activity in prostate ([1]; 12 hours after transurethral injection of 150 uCi 3H-flutamide) | nuclear binding in prostate [1, 5] | unbound activity in prostate [1, 5] | extra-nuclear labeling in prostate [1, 6] | glandular nuclear activity in prostate [1, 6] | autoradiographic labeling of seminal vesicle, seminal duct and testicular samples ([2]; all time points (1, 6, 12, 24, 48 hours)) | autoradiographic grains in the epididymis (regurgitation of the label) ([2]; epididymis, 6 hours after transurethral injection of 150 uCi) | autoradiographic grains in the liver (escape into systemic circulation) ([2]; liver, 48 hours after transurethral injection of 150 uCi) | alleviation of BPH complaints, share of cases [3] |
| --- | --- | --- | --- | --- | --- | --- | --- | --- | --- | --- | --- | --- |
| 3H-flutamide [tritium labeled flutamide] | Strong, diffuse activity scattered over the whole prostate | periphery of the gland. Practically no free (extra-nuclear) | Strong, selective glandular (but not stromal or muscular) | Strong, selective glandular (but not stromal or muscular) | Strong nuclear binding | minimal unbound activity scattered | covers the whole prostate, minimal scattered extra-nuclear | Still strong, although somewhat less activity over the | remained all negative | No grains are seen in the epididymis | No grains are seen in the liver |  |
| CC(C)(C)NC(=O)[C@H]1CC[C@H]2[C@@H]3CC[C@H]4NC(=O)C=C[C@]4(C)[C@H]3CC[C@]12C [finasteride] |  |  |  |  |  |  |  |  |  |  |  | about half of the cases |
